Source: PubChem BioAssay (NCI)
Values joined by “and” are separate entries in the source; they are usually repeats but may differ in a detail not shown here. Identical values can stand only once.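 Cultured in 96-well plates, cells were exposed to test compound for 48 hours across five concentrations. The concentration for 50% growth inhibition is given as GI50. TGI is the concentration that stops growth completely.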

Tests used:
Experiment in all cases: NCI tumour cell line growth inhibition, 48 h
DMS 114 small cell lung = test system: DMS 114 small cell lung
KM20L2 colon = test system: KM20L2 colon
SK-MEL-5 melanoma = test system: SK-MEL-5 melanoma
DLD-1 colon = test system: DLD-1 colon
HOP-18 NSCLC = test system: HOP-18 NSCLC
CCRF-CEM leukemia = test system: CCRF-CEM leukemia
CAKI-1 renal = test system: CAKI-1 renal
SNB-75 CNS = test system: SNB-75 CNS
NCI-H226 lung = test system: NCI-H226 lung
SNB-78 CNS = test system: SNB-78 CNS
SNB-19 CNS = test system: SNB-19 CNS
RPMI-8226 leukemia = test system: RPMI-8226 leukemia
DMS 273 small cell lung = test system: DMS 273 small cell lung
M19-MEL melanoma = test system: M19-MEL melanoma
XF 498 CNS = test system: XF 498 CNS

Q: With `NC(=O)CC(N=Cc1nc(-c2ccccc2)oc1O)C(=O)O` (stereo not drawn) as the compound, how does the TGI (DMS 114 small cell lung) read?
A: Its TGI is > 100 µM.

Q: And the TGI (KM20L2 colon)?
A: Its TGI is > 100 µM.

Q: What about the TGI (SK-MEL-5 melanoma) of the same compound?
A: Its TGI is > 100 µM.

Q: What about the TGI (DLD-1 colon) of the same compound?
A: Its TGI is > 100 µM.

Q: What about the TGI (HOP-18 NSCLC) of the same compound?
A: The TGI was > 100 µM.

Q: What about the TGI (CCRF-CEM leukemia) of the same compound?
A: The TGI was > 100 µM.

Q: And the TGI (CAKI-1 renal)?
A: Its TGI is > 100 µM.

Q: And the TGI (SNB-75 CNS)?
A: Its TGI is > 100 µM.

Q: What about the TGI (NCI-H226 lung) of the same compound?
A: Its TGI is > 100 µM.

Q: What about the TGI (SNB-78 CNS) of the same compound?
A: The TGI was > 100 µM.

Q: What about the TGI (SNB-19 CNS) of the same compound?
A: Its TGI is > 100 µM.

Q: What about the TGI (RPMI-8226 leukemia) of the same compound?
A: Its TGI is > 100 µM.

Q: What about the TGI (DMS 273 small cell lung) of the same compound?
A: Its TGI is > 100 µM.

Q: What about the TGI (M19-MEL melanoma) of the same compound?
A: The TGI was > 100 µM.

Q: What does the source list for `NC(=S)N1N=C2c3ccccc3CC[C@H]2[C@@H]1c1ccc(Cl)cc1`?
A: TGI (DMS 114 small cell lung): 70.6 µM; TGI (KM20L2 colon): > 100 µM; TGI (DLD-1 colon): > 100 µM; TGI (HOP-18 NSCLC): > 100 µM; TGI (CCRF-CEM leukemia): > 100 µM; TGI (NCI-H226 lung): 51.5 µM; TGI (SNB-78 CNS): > 100 µM; TGI (SNB-19 CNS): > 100 µM; TGI (XF 498 CNS): 60.6 µM; TGI (RPMI-8226 leukemia): > 100 µM; TGI (DMS 273 small cell lung): 73.3 µM; TGI (M19-MEL melanoma): > 100 µM

Q: How did the TGI (DMS 114 small cell lung) turn out when `O=C(O)/C=C/c1c[nH]c(=O)[nH]c1=O` was run?
A: Its TGI is > 500 µM.

Q: What about the TGI (KM20L2 colon) of the same compound?
A: Its TGI is > 500 µM.

Q: And the TGI (SK-MEL-5 melanoma)?
A: The TGI was > 500 µM.

Q: And the TGI (DLD-1 colon)?
A: The TGI was > 500 µM.

Q: And the TGI (HOP-18 NSCLC)?
A: Its TGI is > 500 µM.

Q: And the TGI (CCRF-CEM leukemia)?
A: The TGI was > 316 µM.

Q: And the TGI (CAKI-1 renal)?
A: Its TGI is > 500 µM.

Q: What about the TGI (SNB-75 CNS) of the same compound?
A: Its TGI is > 500 µM.

Q: And the TGI (NCI-H226 lung)?
A: Its TGI is > 500 µM.

Q: What about the TGI (SNB-78 CNS) of the same compound?
A: Its TGI is > 500 µM.

Q: What about the TGI (SNB-19 CNS) of the same compound?
A: Its TGI is > 500 µM.

Q: What about the GI50 (XF 498 CNS) of the same compound?
A: The GI50 was > 500 µM and 151 µM.

Q: And the TGI (XF 498 CNS)?
A: The TGI was > 500 µM.

Q: What about the TGI (RPMI-8226 leukemia) of the same compound?
A: Its TGI is > 500 µM.

Q: What about the TGI (DMS 273 small cell lung) of the same compound?
A: The TGI was > 500 µM.

Q: And the TGI (M19-MEL melanoma)?
A: The TGI was > 500 µM.

Q: With `COc1ccccc1C(=O)NCC1CCCN2CCCCC12` (stereo not drawn) as the compound, how does the TGI (SK-MEL-5 melanoma) read?
A: Its TGI is > 100 µM.

Q: And the TGI (CCRF-CEM leukemia)?
A: Its TGI is > 100 µM.

Q: And the TGI (CAKI-1 renal)?
A: Its TGI is > 100 µM.

Q: What about the TGI (SNB-75 CNS) of the same compound?
A: Its TGI is > 100 µM.

Q: What about the TGI (NCI-H226 lung) of the same compound?
A: The TGI was > 100 µM.

Q: What about the TGI (SNB-19 CNS) of the same compound?
A: The TGI was > 100 µM.

Q: What about the TGI (RPMI-8226 leukemia) of the same compound?
A: The TGI was > 100 µM.

Q: Which results are given for `COC(=O)C1OC(O[C@H]2CC[C@]3(C)[C@H]4CC=C5[C@@H]6CC(C)(C)CC[C@]6(C(=O)OC6OCC(O)C(O)C6OC6OC(C)C(OC7OCC(O)C(O)C7O)C(OC7OCC(O)(CO)C7O)C6O)[C@H](O)C[C@@]5(C)[C@]4(C)CC[C@H]3C2(C)C)C(O)C(O)C1O` (stereo partly drawn)?
A: TGI (SK-MEL-5 melanoma): 16.6 µM; TGI (CCRF-CEM leukemia): > 100 µM; TGI (CAKI-1 renal): 17.5 µM; TGI (SNB-75 CNS): 19.5 µM; TGI (NCI-H226 lung): 15.5 µM; TGI (SNB-19 CNS): 19 µM; TGI (RPMI-8226 leukemia): > 31.1 µM

Q: Which results are given for `O=C1C(c2c(O)[nH]c3ccc(Br)cc23)=Nc2ccc(Br)cc21`?
A: TGI (SK-MEL-5 melanoma): > 100 µM; TGI (CCRF-CEM leukemia): > 100 µM; TGI (CAKI-1 renal): > 100 µM; TGI (SNB-75 CNS): 41.3 µM; TGI (NCI-H226 lung): > 100 µM; TGI (SNB-19 CNS): 92.4 µM; TGI (RPMI-8226 leukemia): > 100 µM

Q: How did the TGI (DMS 114 small cell lung) turn out when `C#CCN(Cc1ccc2nc(-c3ccccc3)c(N)nc2c1)c1cc(OC)c(OC)c(OC)c1` was run?
A: Its TGI is 37.7 µM.

Q: And the TGI (KM20L2 colon)?
A: The TGI was > 100 µM.

Q: And the TGI (SK-MEL-5 melanoma)?
A: The TGI was 25.7 µM.

Q: What about the TGI (CCRF-CEM leukemia) of the same compound?
A: Its TGI is 44.8 µM.

Q: And the TGI (SNB-75 CNS)?
A: The TGI was 83.5 µM.

Q: What about the TGI (NCI-H226 lung) of the same compound?
A: Its TGI is 52 µM.

Q: And the TGI (SNB-78 CNS)?
A: Its TGI is 78.9 µM.

Q: And the TGI (SNB-19 CNS)?
A: The TGI was > 100 µM.

Q: What about the TGI (XF 498 CNS) of the same compound?
A: Its TGI is 59.5 µM.

Q: And the TGI (RPMI-8226 leukemia)?
A: Its TGI is 32.3 µM.

Q: And the TGI (DMS 273 small cell lung)?
A: Its TGI is 42.8 µM.

Q: And the TGI (M19-MEL melanoma)?
A: Its TGI is > 100 µM.

Q: `Nc1nc(Cl)c(Cl)c(NCC2(O)CCC2)n1` was tested. Which TGI (SK-MEL-5 melanoma) did it give?
A: The TGI was > 100 µM.

Q: And the TGI (CCRF-CEM leukemia)?
A: Its TGI is > 100 µM.

Q: And the TGI (CAKI-1 renal)?
A: The TGI was 29.6 µM.

Q: What about the TGI (SNB-75 CNS) of the same compound?
A: Its TGI is > 100 µM.

Q: And the TGI (NCI-H226 lung)?
A: The TGI was > 100 µM.

Q: And the TGI (SNB-19 CNS)?
A: Its TGI is > 100 µM.

Q: What about the TGI (RPMI-8226 leukemia) of the same compound?
A: Its TGI is > 100 µM.

Q: Which TGI (DMS 114 small cell lung) does the source give for `C[C@H](CCC1SC1(C)C)C1CCC2(C)C3=C(CC[C@]12C)[C@@]1(C)CC[C@H](O)C(C)(C)C1CC3` (stereo partly drawn) here?
A: The TGI was > 100 µM.

Q: And the TGI (KM20L2 colon)?
A: The TGI was > 100 µM.

Q: And the TGI (SK-MEL-5 melanoma)?
A: Its TGI is > 100 µM.

Q: What about the TGI (DLD-1 colon) of the same compound?
A: The TGI was > 100 µM.

Q: What about the TGI (HOP-18 NSCLC) of the same compound?
A: The TGI was > 100 µM.

Q: And the TGI (CCRF-CEM leukemia)?
A: The TGI was > 100 µM.

Q: What about the TGI (CAKI-1 renal) of the same compound?
A: The TGI was > 100 µM.

Q: And the TGI (SNB-75 CNS)?
A: Its TGI is > 100 µM.

Q: What about the TGI (NCI-H226 lung) of the same compound?
A: The TGI was > 100 µM.

Q: And the TGI (SNB-19 CNS)?
A: Its TGI is > 100 µM.

Q: What about the TGI (XF 498 CNS) of the same compound?
A: Its TGI is > 100 µM.

Q: What about the TGI (RPMI-8226 leukemia) of the same compound?
A: The TGI was > 100 µM.

Q: What about the TGI (DMS 273 small cell lung) of the same compound?
A: Its TGI is > 100 µM.

Q: Which TGI (SK-MEL-5 melanoma) does the source give for `C(=Nc1ccc(-c2nc3ccccc3s2)cc1)c1ccc[nH]1` here?
A: Its TGI is 30.7 µM.

Q: And the TGI (CCRF-CEM leukemia)?
A: Its TGI is 57.4 µM.

Q: What about the TGI (CAKI-1 renal) of the same compound?
A: The TGI was 78.3 µM.

Q: What about the TGI (SNB-75 CNS) of the same compound?
A: The TGI was 55.7 µM.

Q: And the TGI (NCI-H226 lung)?
A: The TGI was 35.6 µM.

Q: And the TGI (SNB-19 CNS)?
A: The TGI was > 100 µM.

Q: What about the TGI (RPMI-8226 leukemia) of the same compound?
A: The TGI was 55.9 µM.

Q: With `CC1=CP(=O)(c2c(C(C)C)cc(C(C)C)cc2C(C)C)CCC1Cl` (stereo not drawn) as the compound, how does the TGI (SK-MEL-5 melanoma) read?
A: The TGI was 31.7 µM.

Q: What about the TGI (CCRF-CEM leukemia) of the same compound?
A: Its TGI is 65.4 µM.

Q: What about the TGI (CAKI-1 renal) of the same compound?
A: Its TGI is 39.4 µM.

Q: And the TGI (SNB-75 CNS)?
A: Its TGI is 28.6 µM.

Q: And the TGI (NCI-H226 lung)?
A: The TGI was 35.1 µM.

Q: And the TGI (SNB-19 CNS)?
A: The TGI was 30.3 µM.

Q: What about the TGI (RPMI-8226 leukemia) of the same compound?
A: The TGI was 40.9 µM.

Q: `C/C(=N\O)c1cccc[n+]1Cc1ccccc1` was tested. Which TGI (SK-MEL-5 melanoma) did it give?
A: The TGI was > 100 µM.

Q: And the TGI (CCRF-CEM leukemia)?
A: Its TGI is > 100 µM.

Q: What about the TGI (CAKI-1 renal) of the same compound?
A: The TGI was > 100 µM.

Q: What about the TGI (SNB-75 CNS) of the same compound?
A: Its TGI is > 100 µM.

Q: And the TGI (NCI-H226 lung)?
A: The TGI was > 100 µM.

Q: What about the TGI (SNB-19 CNS) of the same compound?
A: The TGI was > 100 µM.

Q: What about the TGI (RPMI-8226 leukemia) of the same compound?
A: Its TGI is > 100 µM.

Q: Which results are given for `CCN1CCC(CNC(=O)c2ccc(N)cc2)N1CC` (stereo not drawn)?
A: TGI (SK-MEL-5 melanoma): > 100 µM; TGI (CCRF-CEM leukemia): > 100 µM; TGI (CAKI-1 renal): > 100 µM; TGI (SNB-75 CNS): > 100 µM; TGI (NCI-H226 lung): > 100 µM; TGI (SNB-19 CNS): > 100 µM; TGI (RPMI-8226 leukemia): > 100 µM
